Data taken from patent US20150296783A1, “SYNERGISTIC COMBINATION OF A ZOXAMIDE COMPOUND AND TERBUTRYN FOR DRY FILM PROTECTION” (ROHM AND HAAS COMPANY, priority 2012, published 2015).

Experiments:
[1] = test system: Chlorella sp. ATCC 7516; assay: Algal efficacy testing of dry paint film (modified ASTM 5589), Chlorella; type: cell-based; settings: 3 weeks; for Total conc (concentration chosen as minimum inhibitory concentration for SI): dry paint film, pass level ≧75% inhibition, total biocide in liquid paint
Protocol: (§1) Slurries containing 33% antimicrobial active ingredient (Zoxamide) and 45% antimicrobial ingredient Terbutryn were post added to a white, acrylic/silicone based outdoor paint free of biocides to give a total active ingredient concentration of […] respectively. These paints were then diluted with an antimicrobial free acrylic/silicone based paint and mixed to prepare targeted concentrations of antimicrobial compounds for the testing. The total biocides concentrations tested were 125, 250, 500, 1000, 2000 and 5000 ppm. After biocides addition or dilution, the paints were mixed 90 seconds with the horse power shaker (AXEL 75M3372/Agitateur SO-10MI) until uniformity was achieved. Paints containing different antimicrobial compounds at the same levels were mixed together in order to obtain the desired ratio of antimicrobial compounds. After one day, the paints were applied to Schleicher & Schuell filter paper at 280 μm wet film thickness and dried for 3 days at room temperature avoiding direct exposure to sunlight. Square discs (1.6 cm×1.6 cm) were cut out from each panel and were used as the substrate for algal efficacy tests. This sample size allowed for an agar border when the sample disc was placed into the well of the test plate.
(§2) Algal efficacy was tested according to modified ASTM 5589 which is a standard accelerated test method for determining resistance of various coatings (including paints) to algal defacement. To accommodate for high-throughput screening, this method was scaled down from petri dishes to 6-well plates. Bold Modified Basal Freshwater Nutrient Solution was used as growth medium. A single coated filter paper coupon was placed with a pair of sterile forceps at the center of the agar plug (on top) with the painted surface facing upwards. Algal inoculums were prepared by mixing equal concentrations (1×10^6 cfu/ml) and equal volumes of exponentially growing algae cultures.
(§3) Each well that contains a tested coupon was inoculated with 1750 μl of algal suspensions (1×10^6 cfu/ml) making sure that the whole surface (paint film as well as the agar surrounding it) was evenly covered. The plates were incubated at room temp (21° C.-25° C.) with cyclic exposure to light and dark phases, for a period of three weeks.
(§4) At the end of the three week incubation period, the samples were scored for percent inhibition regarding visible algal growth compared to the blank sample (0% inhibition).
(§5) The SI is calculated based on F .C. Kull et.
(§6) The minimal targeted inhibition was set at 75%, meaning a coupon with at least 75% algal growth inhibition was considered as a pass.

[2] = test system: Stichococcus bacillaris SAG 379-1a / CCAP 379/1a; assay: Algal efficacy testing of dry paint film (modified ASTM 5589), Stichococcus; type: cell-based; settings: 3 weeks; for inhibition at 5000 ppm: Stichococcus bacillaris, 504 h, total conc 5000 ppm, visible algal growth vs blank; for Total conc (concentration chosen as minimum inhibitory concentration for SI): dry paint film, pass level ≧75% inhibition, total biocide in liquid paint
Protocol: as §1, §2, §3, §4, §5, §6

SMILES | inhibition at 2000 ppm ([1]; 504 h, total conc 2000 ppm, visible algal growth vs blank) | Total conc (concentration chosen as minimum inhibitory concentration for SI) [1] | inhibition at 5000 ppm [2] | Total conc (concentration chosen as minimum inhibitory concentration for SI) [2] | inhibition at 5000 ppm ([1]; 504 h, total conc 5000 ppm, visible algal growth vs blank)
CCNc1nc(NC(C)(C)C)nc(SC)n1 [Terbutryn, N^2-tert-butyl-N^4-ethyl-6-methylthio-1,3,5-triazine-2,4-diamine] | 85% | 2000 ppm | 80% | 5000 ppm | 
CCC(C)(NC(=O)c1cc(Cl)c(C)c(Cl)c1)C(=O)CCl (centres unmarked) [Zoxamide, 3,5-Dichloro-N-(3-chloro-1-ethyl-1-methyl-2-oxopropyl)-4-methylbenzamide] |  | 5000 ppm | 45% | 5000 ppm | 60%
